Measured values taken from ChEMBL document CHEMBL1201862, “PubChem BioAssay data set” (2004).
Activity calls are given as the source filed them.

What was measured:
cells [1] = type: functional, cell-based
[2] = target: Adenosylmethionine-8-amino-7-oxononanoate aminotransferase (Mycobacterium tuberculosis, UniProt P9WQ81); experiment: Mycobacterium tuberculosis BioA enzyme inhibitor Measured in Biochemical System Using Plate Reader - 2163-02_Inhibitor_Dose_CherryPick_Activity.; type: functional, Mycobacterium tuberculosis UT205
Adenosylmethionine-8-amino-7-oxononanoate aminotransferase, sequence (P9WQ81 whole entry): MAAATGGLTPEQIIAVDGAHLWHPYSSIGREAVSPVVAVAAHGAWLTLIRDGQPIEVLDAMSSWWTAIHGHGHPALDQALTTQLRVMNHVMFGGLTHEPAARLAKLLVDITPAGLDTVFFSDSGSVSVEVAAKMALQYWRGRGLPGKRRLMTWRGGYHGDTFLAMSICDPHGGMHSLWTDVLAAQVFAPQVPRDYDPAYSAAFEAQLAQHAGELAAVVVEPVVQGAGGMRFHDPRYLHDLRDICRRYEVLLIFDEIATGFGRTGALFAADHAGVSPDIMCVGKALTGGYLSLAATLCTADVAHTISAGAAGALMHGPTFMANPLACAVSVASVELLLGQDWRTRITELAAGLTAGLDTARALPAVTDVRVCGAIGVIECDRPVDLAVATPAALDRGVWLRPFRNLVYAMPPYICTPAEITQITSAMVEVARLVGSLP

cells [3] = type: functional, cell-based; remark: listed apart in the source
[4] = target: Peroxisome proliferator-activated receptor gamma/Nuclear receptor coactivator 1 (Homo sapiens, UniProt P37231); experiment: (§1) TR-FRET dose response biochemical High Throughput Screening assay for agonists of the steroid receptor coactivator 1 (SRC-1) recruitment by the peroxisome proliferator-activated receptor gamma (PPAR gamma): non-selective agonists. [Related pubchem assays (depositor defined):AID1300, AID1808, AID504735, AID631]; type: protein assay
[5] = target: Peroxisome proliferator-activated receptor gamma/Nuclear receptor coactivator 3 (Homo sapiens, UniProt P37231); experiment: as §1, with “3 (SRC-3)” for “1 (SRC-1)”, “assays: 1301 (Confirmation screen.), 1048 (Primary screen.)]” for “assays (depositor defined):AID1300, AID1808, AID504735, AID631]”; type: functional
Protein Wnt-3a = Protein Wnt-3a (Mus musculus, UniProt P27467); experiment: Wnt3a-driven reporter signaling inhibition, dose response, selectivity assay for Gli-SUFU antagonist project, Wnt-LIGHT cells, luminescence (AID 651570); type: functional; conditions: read-out: IC50_Mean;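 further: Wnt-LIGHT reporter cells stimulated with conditioned medium from Wnt3a-producing cells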
Protein Wnt-3a, sequence (P27467 whole entry): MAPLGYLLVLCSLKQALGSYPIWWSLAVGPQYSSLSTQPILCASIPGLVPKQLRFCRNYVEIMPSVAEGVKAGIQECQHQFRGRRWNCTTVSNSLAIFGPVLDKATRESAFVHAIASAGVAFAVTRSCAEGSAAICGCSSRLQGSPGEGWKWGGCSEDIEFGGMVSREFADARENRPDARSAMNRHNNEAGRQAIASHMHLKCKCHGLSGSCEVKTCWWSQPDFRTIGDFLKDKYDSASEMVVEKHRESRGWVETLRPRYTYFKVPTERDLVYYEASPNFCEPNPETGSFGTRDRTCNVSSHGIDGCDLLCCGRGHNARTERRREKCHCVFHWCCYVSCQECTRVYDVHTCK

[6] = target: Peroxisome proliferator-activated receptor gamma/Nuclear receptor coactivator 2 (Homo sapiens, UniProt P37231); experiment: TR-FRET dose response biochemical High Throughput Screening assay for agonists of the steroid receptor coactivator 2 (SRC-2) recruitment by the peroxisome proliferator-activated receptor gamma (PPAR gamma): non-selective agonists. [Related pubchem assays: 1297, 1032 ]; type: functional
Peroxisome proliferator-activated receptor gamma/Nuclear receptor coactivator 2, sequence (P37231 whole entry): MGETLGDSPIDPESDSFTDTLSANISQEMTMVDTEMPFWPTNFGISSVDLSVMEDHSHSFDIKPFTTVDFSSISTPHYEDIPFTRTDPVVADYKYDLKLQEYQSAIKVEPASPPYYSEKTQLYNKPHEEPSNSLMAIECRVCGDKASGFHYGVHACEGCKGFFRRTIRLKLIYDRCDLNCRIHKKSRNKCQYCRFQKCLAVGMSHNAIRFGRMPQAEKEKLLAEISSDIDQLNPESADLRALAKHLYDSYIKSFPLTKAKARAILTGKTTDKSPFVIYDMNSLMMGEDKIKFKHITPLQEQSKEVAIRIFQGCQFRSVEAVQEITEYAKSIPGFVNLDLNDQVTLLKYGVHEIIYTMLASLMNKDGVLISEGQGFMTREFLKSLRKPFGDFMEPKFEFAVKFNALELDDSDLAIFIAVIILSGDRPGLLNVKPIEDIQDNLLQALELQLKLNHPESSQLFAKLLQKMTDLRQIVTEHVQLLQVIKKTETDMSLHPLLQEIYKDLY
Peroxisome proliferator-activated receptor gamma/Nuclear receptor coactivator 2, sequence (Q15596 whole entry, further chain): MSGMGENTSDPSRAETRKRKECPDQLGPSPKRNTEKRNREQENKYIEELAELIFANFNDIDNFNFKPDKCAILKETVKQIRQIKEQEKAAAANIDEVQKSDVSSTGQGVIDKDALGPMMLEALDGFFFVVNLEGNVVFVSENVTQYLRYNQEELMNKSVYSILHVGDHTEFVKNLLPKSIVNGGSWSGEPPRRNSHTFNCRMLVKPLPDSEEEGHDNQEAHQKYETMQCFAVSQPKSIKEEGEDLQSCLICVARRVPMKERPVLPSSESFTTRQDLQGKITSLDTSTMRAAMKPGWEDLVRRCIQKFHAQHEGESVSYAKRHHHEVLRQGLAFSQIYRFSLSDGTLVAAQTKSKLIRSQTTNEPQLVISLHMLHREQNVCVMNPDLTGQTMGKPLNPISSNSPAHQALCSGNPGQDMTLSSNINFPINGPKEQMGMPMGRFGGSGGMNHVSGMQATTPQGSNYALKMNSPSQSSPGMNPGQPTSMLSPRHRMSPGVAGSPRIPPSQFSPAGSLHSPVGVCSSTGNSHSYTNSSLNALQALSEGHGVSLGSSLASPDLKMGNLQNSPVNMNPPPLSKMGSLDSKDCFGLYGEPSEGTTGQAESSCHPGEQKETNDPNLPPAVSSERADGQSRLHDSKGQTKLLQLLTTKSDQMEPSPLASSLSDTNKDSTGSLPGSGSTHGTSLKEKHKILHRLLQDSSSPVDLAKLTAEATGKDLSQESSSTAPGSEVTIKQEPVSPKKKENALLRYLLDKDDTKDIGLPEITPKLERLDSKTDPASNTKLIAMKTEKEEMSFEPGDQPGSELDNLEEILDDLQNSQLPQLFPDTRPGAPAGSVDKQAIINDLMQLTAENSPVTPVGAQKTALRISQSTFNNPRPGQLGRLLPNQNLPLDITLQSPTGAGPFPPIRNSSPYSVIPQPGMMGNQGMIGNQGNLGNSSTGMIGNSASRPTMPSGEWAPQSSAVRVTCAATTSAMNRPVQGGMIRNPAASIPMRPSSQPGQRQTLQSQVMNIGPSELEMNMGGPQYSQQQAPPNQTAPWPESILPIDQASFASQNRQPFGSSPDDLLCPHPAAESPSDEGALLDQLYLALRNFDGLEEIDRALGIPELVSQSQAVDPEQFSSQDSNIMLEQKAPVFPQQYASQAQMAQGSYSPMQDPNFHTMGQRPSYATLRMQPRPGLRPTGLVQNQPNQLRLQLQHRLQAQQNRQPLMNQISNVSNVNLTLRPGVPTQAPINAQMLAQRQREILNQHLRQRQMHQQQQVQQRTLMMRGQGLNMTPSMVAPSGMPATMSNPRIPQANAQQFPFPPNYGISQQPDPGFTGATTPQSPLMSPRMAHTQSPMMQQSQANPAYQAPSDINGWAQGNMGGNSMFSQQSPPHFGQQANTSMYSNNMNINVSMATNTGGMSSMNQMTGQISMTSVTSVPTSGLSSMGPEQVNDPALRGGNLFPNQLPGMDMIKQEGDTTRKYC

[7] = target: T1, Corticotropin-releasing factor receptor 2/Corticotropin-releasing factor-binding protein (Homo sapiens, UniProt P24387+Q13324); experiment: Dose Response confirmation of uHTS hits for small molecule antagonists of the CRF-binding protein and CRF-R2 receptor complex.; type: functional; conditions: read-out: IC50_Mean
T1 sequence (Q13324 whole entry): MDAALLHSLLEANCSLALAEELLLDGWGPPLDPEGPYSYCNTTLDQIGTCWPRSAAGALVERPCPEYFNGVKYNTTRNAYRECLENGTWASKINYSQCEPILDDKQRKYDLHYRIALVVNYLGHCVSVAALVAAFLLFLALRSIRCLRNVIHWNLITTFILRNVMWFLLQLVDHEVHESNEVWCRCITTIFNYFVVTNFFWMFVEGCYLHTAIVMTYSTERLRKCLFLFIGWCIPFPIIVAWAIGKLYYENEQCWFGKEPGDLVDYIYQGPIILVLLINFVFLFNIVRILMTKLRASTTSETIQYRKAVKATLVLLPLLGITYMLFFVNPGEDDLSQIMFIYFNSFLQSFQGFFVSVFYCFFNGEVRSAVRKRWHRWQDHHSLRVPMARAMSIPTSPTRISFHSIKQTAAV
T1 sequence (P24387 whole entry): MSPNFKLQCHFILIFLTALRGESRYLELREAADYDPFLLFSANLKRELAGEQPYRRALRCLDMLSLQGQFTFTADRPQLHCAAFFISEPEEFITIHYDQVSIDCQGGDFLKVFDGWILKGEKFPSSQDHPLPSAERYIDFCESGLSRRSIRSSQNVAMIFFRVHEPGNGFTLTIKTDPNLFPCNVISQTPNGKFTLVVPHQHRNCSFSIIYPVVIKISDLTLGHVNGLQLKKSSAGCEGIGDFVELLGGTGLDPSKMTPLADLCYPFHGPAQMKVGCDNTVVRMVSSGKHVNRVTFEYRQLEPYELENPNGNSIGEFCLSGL

[8] = target: T1, Corticotropin-releasing factor receptor 2/Corticotropin-releasing factor-binding protein; experiment: activators of CRF receptor 2 with binding protein – uHTS hits, confirmation (AID 602473); type: functional; conditions: read-out: EC50_Mean
[9] = target: Photoreceptor-specific nuclear receptor (Homo sapiens, UniProt Q9Y5X4); type: functional, cell-based;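 further: CHO-S cells with Gal4-NCOR and VP16-NR2E3 two-hybrid luciferase reporter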
Photoreceptor-specific nuclear receptor, sequence (Q9Y5X4 whole entry, the tested form may be a part): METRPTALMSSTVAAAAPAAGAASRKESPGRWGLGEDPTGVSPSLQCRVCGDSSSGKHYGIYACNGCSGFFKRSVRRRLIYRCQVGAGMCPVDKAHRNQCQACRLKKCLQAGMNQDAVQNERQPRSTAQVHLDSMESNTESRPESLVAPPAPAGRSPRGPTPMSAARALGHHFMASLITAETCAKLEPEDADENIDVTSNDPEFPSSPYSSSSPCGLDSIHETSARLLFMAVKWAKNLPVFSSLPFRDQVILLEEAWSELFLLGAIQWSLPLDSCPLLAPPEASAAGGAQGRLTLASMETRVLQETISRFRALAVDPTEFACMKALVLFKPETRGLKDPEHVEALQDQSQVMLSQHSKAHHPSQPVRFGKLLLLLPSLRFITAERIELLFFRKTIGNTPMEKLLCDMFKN

[10] = CRF-BP/CRF-R2 complex antagonists, dose response, cell-based, uHTS hits, 384-well (AID 651639); type: functional, Homo sapiens; conditions: read-out: IC50_Mean
[11] = target: T2, Rac GTPase-activating protein 1 (Homo sapiens, UniProt Q9H0H5); experiment: MgcRacGAP GTPase-activating activity inhibitors, confirmation, biochemical, ADP Hunter fluorescence, primary and confirmatory (AID 624330); type: functional
T2 sequence (Q9H0H5 whole entry): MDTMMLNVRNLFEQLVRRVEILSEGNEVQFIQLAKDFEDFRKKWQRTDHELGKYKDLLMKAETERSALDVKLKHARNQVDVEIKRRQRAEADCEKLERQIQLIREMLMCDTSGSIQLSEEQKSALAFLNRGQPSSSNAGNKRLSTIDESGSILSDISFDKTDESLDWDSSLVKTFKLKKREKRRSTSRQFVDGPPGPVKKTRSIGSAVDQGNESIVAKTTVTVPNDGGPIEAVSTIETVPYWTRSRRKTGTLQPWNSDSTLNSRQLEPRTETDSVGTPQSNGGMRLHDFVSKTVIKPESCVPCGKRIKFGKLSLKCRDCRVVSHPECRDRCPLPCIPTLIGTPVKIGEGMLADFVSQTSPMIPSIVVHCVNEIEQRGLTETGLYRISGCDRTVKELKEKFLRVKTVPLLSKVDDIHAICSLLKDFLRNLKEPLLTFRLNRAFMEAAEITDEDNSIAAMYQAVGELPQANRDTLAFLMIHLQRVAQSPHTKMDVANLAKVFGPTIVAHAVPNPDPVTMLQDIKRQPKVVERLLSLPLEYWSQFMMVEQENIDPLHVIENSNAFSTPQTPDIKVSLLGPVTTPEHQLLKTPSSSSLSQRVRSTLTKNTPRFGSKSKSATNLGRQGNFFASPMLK

[12] = target: Glucose-6-phosphate 1-dehydrogenase (Homo sapiens, UniProt P11413); experiment: human G6PD enzyme inhibitors, dose response, selectivity assay for P. falciparum G6PD inhibitor project, biochemical, fluorescence (AID 504792); type: functional
Glucose-6-phosphate 1-dehydrogenase, sequence (P11413 whole entry, the tested form may be a part): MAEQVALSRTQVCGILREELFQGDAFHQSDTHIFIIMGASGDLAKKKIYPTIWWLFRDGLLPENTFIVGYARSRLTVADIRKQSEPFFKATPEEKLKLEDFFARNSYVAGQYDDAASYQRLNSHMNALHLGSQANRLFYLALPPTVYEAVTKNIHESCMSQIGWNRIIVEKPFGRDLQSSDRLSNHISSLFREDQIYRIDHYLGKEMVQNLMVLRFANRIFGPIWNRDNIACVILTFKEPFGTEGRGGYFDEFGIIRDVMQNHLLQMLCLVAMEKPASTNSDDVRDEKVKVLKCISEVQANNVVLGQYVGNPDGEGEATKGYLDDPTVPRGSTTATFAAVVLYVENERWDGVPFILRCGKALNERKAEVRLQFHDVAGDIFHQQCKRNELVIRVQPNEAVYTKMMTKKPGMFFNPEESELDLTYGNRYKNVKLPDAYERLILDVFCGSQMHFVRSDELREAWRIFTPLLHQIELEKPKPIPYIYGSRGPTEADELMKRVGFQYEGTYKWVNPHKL

[13] = Fluorescence-based cell-based high throughput dose response assay for inhibitors of the interaction of nucleotide-binding oligomerization domain containing 2 (NOD2) and the receptor-interacting serine-threonine kinase 2 (RIPK2).; type: functional; conditions: Homo sapiens
Hexokinase = target: T3, Hexokinase (Trypanosoma brucei, UniProt Q38C41); experiment: Confirmation assay for inhibitors of Trypanosoma brucei hexokinase 1-Analogue-first series. [Related pubchem assays (depositor defined):AID1430, AID1632, AID2516, AID2560, AID2579, AID2600, AID449725, AID492951]; type: functional
T3 sequence (Q38C41 whole entry): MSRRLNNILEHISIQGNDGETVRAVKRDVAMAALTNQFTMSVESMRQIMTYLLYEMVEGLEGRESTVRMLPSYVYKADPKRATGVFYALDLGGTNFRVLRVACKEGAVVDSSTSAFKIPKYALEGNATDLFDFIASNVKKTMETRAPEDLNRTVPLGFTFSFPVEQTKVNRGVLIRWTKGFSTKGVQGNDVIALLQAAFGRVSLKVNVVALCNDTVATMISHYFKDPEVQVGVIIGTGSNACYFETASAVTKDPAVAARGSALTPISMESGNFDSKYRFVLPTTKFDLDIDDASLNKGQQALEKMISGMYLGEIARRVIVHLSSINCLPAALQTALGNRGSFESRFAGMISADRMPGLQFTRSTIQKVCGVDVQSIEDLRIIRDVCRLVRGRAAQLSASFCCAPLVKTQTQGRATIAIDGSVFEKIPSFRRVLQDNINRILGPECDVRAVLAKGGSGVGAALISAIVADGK

Beta Lactamase = Beta Lactamase (Pseudomonas aeruginosa, UniProt Q932Y6); experiment: beta-lactamase reporter inhibitor potency, dose response, artefact control for NOD2-RIPK2 interaction inhibitor project, BLA reporter cells, FRET fluorescence (AID 651552); type: functional, cell-based
Beta Lactamase, sequence (Q932Y6 whole entry): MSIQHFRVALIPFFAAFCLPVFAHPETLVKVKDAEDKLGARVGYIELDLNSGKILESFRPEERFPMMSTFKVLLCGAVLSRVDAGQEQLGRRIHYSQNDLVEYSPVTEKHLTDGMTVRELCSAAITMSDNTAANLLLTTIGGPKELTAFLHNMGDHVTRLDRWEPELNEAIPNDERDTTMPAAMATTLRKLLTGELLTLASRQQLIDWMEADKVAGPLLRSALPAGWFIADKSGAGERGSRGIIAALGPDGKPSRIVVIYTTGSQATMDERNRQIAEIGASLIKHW

[14] = target: Mitochondrial peptide methionine sulfoxide reductase (Bos taurus, UniProt P54149); experiment: Absorbance-based biochemical high throughput dose response assay for activators of Methionine sulfoxide reductase A (MsrA).; type: functional
Mitochondrial peptide methionine sulfoxide reductase, sequence (P54149 whole entry): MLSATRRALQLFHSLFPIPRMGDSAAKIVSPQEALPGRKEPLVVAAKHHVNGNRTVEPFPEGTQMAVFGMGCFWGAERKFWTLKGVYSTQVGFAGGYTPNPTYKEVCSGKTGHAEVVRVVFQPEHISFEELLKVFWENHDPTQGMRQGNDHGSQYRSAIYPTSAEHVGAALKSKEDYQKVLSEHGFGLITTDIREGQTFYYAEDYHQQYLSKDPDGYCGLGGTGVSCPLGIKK

[15] = AlphaScreen signal interference compounds, dose response, artefact control for ARNT-TACC3 interaction inhibitor project, biochemical, luminescence, cherry-pick (AID 651705); type: functional;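 further: AlphaScreen bead proximity signal that flags compounds interfering with the detection technology; potency reflects signal decrease which marks the compound as an assay artifact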
[16] = ARNT/TACC3 interaction disruptors, potency, confirmation, biochemical, AlphaScreen, cherry-picked samples (AID 651703); type: functional, Homo sapiens;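 further: His-tagged ARNT PAS-B domain paired with GST-TACC3 E629A dimer coactivator fragment; potency of inhibitors that break up the complex and lower AlphaScreen signal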
Interleukin-8 = target: T4, Interleukin-8 (Homo sapiens, UniProt P10145); experiment: Dose Response confirmation of uHTS small molecule hits for cystic fibrosis induced NFkb Inhibitors in a PAF-induced IL8 counterscreen.; type: functional; conditions: read-out: IC50_Mean
T4 sequence (P10145 whole entry): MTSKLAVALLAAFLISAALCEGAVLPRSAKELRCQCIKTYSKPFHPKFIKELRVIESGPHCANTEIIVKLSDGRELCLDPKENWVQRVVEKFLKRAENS

[17] = target: Mitogen-activated protein kinase 10 (Homo sapiens, UniProt P53779); experiment: Dose response biochemical screening assay for inhibitors of c-Jun N-Terminal Kinase 3 (JNK3). [Related pubchem assays: 746 ]
Mitogen-activated protein kinase 10, sequence (P53779 whole entry, the tested form may be a part): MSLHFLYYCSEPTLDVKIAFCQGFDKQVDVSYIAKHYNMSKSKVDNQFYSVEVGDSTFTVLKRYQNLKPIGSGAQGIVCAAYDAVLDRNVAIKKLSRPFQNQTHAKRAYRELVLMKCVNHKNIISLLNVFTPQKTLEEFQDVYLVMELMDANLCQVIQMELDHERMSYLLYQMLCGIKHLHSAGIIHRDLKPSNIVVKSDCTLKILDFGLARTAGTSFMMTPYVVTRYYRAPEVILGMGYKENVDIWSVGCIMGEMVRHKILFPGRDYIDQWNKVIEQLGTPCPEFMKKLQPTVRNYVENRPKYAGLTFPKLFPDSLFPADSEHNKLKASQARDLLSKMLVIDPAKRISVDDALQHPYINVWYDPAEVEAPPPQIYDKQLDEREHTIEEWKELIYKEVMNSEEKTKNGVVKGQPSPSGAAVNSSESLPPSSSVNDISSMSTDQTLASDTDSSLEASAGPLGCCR

[18] = inhibitors of HIV Env-driven cell fusion, dose response, cherry-pick (AID 652057); type: functional, cell-based
[19] = off-target signal loss in HeLa-CEM21 co-culture – HeLa F-luc CTL cells, cherry-picked, counter-screen for HIV-1 Env fusion inhibitor project, dose response (AID 652040); type: functional, cell-based;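 further: potency for signal decrease marking cytotoxic or nonspecific inhibition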
[20] = inhibitors of clade B AD8 Env fusion, dose response, cell-based, cherry-pick (AID 652062); type: functional;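 further: luciferase signal from cell-cell fusion driven by HIV-1 clade B AD8 Env; potency is for inhibitors of fusion seen as a drop in luminescence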

CC(=O)c1ccc(C(=O)N2CCCC(Nc3ccc(C(C)C)cc3)C2)s1 (stereo unspecified)
EC50 (cells [1]): > 350 µM (not active) | AC50 [2]: 0.833 µM (active) | EC50 (cells [3]): > 350 µM (not active)

O=C(Nc1ccc(F)c(F)c1)C1CCN(S(=O)(=O)c2cccs2)CC1
AC50 [2]: 0.564 µM (active)

CCOC(=O)CSc1c(-c2cccs2)[nH]c2ccccc12
EC50 [4]: 13.2 µM (inactive) | EC50 [5]: 53.8 µM (not active) | IC50 (Protein Wnt-3a): 17 µM (active) | EC50 [6]: 13.8 µM (not active)

O=[N+]([O-])c1ccc(NS(=O)(=O)c2ccccc2)c(Cl)c1
IC50 [7]: 4.45 µM (active) | EC50 [8]: > 53 µM (inactive) | IC50 [9]: 3.22 µM (active) | IC50 [10]: > 20 µM (inactive)

O=c1c2ccc(F)cc2sn1-c1ccccc1
IC50 [11]: 36.4 µM (active) | IC50 [12]: 11.8 µM (active) | IC50 [13]: 5.43 µM (active) | IC50 (Hexokinase): 2.31 µM (active) | IC50 (Beta Lactamase): 23.4 µM (inactive) | EC50 [14]: > 104 µM (inactive)

O=C1NC(=O)C(=Cc2ccc(Cl)cc2Cl)S1
IC50 [9]: 4.65 µM (active)

Cc1ccccc1/C=N/N1C(=O)CSC1=S
AC50 [15]: 135 µM (active) | AC50 [16]: 109 µM (active)

COc1ccc2ncn(-c3ccccc3)c2c1
IC50 (Interleukin-8): 17.3 µM (inactive) | IC50 [17]: 34.9 µM (not active) | AC50 [18]: 11.6 µM (active) | AC50 [19]: 20.1 µM (active) | AC50 [20]: 40.2 µM (active)
